According to patent US10815230B2, “Casein kinase 1 delta inhibitor” (ELECTROPHORETICS LIMITED, priority 2015, dated 2020):

Legend:
[1] = test system: TMHT (Thy-1 Mutated Human Tau) mouse; experiment: In-vivo efficacy, Morris Water Maze in tau transgenic mice; conditions: 30 mg/kg orally for 8 weeks
From the text: Various compounds of different classes (among them also antibody treatments) were positively tested for their efficacy in the TMHT model. Published examples are the γ-secretase modulator CHF5074 (Lanzilotta A, et al. The γ-secretase modulator CHF5074 reduces the accumulation of native hyperphosphoxylated tau in a transgenic mouse model of Alzheimer's disease. J Mol Neurosci. 45(1):22--33 (2010)), sodium selenate (Corcoran N M et al. Sodium selenate specifically activates PP2A phosphatase, dephosphorylates tau and reverses memory deficits in an Alzheimer's disease model. J Clin Neurosci. 17(8):1025-33 (2010)) and grape-seed polyphenol extract (Wang J et al. Grape derived polyphenols attenuate tau neuropathology in a mouse model of Alzheimer's disease. […] The effects of the compounds on learning in the Morris Mater Maze (MWM) were evaluated. Blood (plasma) and brain samples were collected after sacrification. Samples collected at sacrifice were plasma, left cortex, left hippocampus, right cortex, right hippocampus, remainder of left brain hemisphere, remainder of right brain hemisphere. In total 48 animals were used and allocated to 4 treatment groups. The start position of the mouse and the position of the platform (FIG. 1) in the different trials of the MWM were as indicated in Table 9: […] A descriptive statistical analysis was performed on all evaluated parameters. All data were represented as mean ±standard error of mean (SEM). MWM learning curve data of three trials per day were averaged. Over a period of 4 days, the ability to find a hidden platform using visual cues was measured performing 3 trials a day. By comparison of the learning curves, the cognitive abilities of the different treatment groups and possible drug effects were evaluated.

ABL2/ARG = ABL2/ARG (Homo sapiens, UniProt P42684); experiment: Kinase selectivity, % remaining activity; format: biochemical; conditions: 10 μM compound, 10 μM ATP, duplicate
Method: (§1) A two-tier strategy to determine the selectivity of compound A was applied: first, the compound was tested at a single concentration (in duplicate) to determine the %-remaining activity of the target kinase. Subsequently, the IC50 of compound A and comparative compounds for casein kinase 1 delta were determined.
(§2) Compounds were tested in single dose duplicate mode at a concentration of 10 μM (in DMSO) and reactions were carried out at 10 μM ATP, Table 3 reports the % of remaining activity (relative to DMSO).

ALK5/TGFBR1 = molecular target: T1, ALK5/TGFBR1 (Homo sapiens, UniProt P36897); experiment: Kinase selectivity, % remaining activity; format: biochemical; conditions: 10 μM compound, 10 μM ATP, duplicate
T1 sequence (P36897 34-503): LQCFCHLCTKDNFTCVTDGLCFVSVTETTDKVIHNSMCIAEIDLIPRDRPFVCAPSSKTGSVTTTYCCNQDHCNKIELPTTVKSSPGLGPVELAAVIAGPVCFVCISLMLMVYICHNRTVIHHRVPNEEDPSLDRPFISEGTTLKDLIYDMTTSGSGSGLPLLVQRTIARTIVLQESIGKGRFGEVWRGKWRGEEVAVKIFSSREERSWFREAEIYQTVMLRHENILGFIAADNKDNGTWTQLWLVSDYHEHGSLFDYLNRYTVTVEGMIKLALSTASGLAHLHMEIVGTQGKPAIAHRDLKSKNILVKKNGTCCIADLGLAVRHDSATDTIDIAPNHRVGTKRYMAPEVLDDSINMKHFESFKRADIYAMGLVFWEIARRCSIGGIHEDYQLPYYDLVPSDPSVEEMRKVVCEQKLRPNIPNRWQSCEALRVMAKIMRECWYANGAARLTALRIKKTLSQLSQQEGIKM
Method: as §1, §2

CK1e = CK1e (Homo sapiens, UniProt P49674); experiment: Kinase selectivity, % remaining activity; format: biochemical; conditions: 10 μM compound, 10 μM ATP, duplicate
Method: as §1, §2

CK1g1 = CK1g1 (Homo sapiens, UniProt Q9HCP0); experiment: Kinase selectivity, % remaining activity; format: biochemical; conditions: 10 μM compound, 10 μM ATP, duplicate
Method: as §1, §2

CK1g2 = CK1g2 (Homo sapiens, UniProt P78368); experiment: Kinase selectivity, % remaining activity; format: biochemical; conditions: 10 μM compound, 10 μM ATP, duplicate
Method: as §1, §2

CLK2 = CLK2 (Homo sapiens, UniProt P49760); experiment: Kinase selectivity, % remaining activity; format: biochemical; conditions: 10 μM compound, 10 μM ATP, duplicate
Method: as §1, §2

DAPK1 = DAPK1 (Homo sapiens, UniProt P53355); experiment: Kinase selectivity, % remaining activity; format: biochemical; conditions: 10 μM compound, 10 μM ATP, duplicate
Method: as §1, §2

EGFR = EGFR (Homo sapiens, UniProt P00533); experiment: Kinase selectivity, % remaining activity; format: biochemical; conditions: 10 μM compound, 10 μM ATP, duplicate
Method: as §1, §2

EPHA2 = EPHA2 (Homo sapiens, UniProt P29317); experiment: Kinase selectivity, % remaining activity; format: biochemical; conditions: 10 μM compound, 10 μM ATP, duplicate
Method: as §1, §2

FGFR1 = FGFR1 (Homo sapiens, UniProt P11362); experiment: Kinase selectivity, % remaining activity; format: biochemical; conditions: 10 μM compound, 10 μM ATP, duplicate
Method: as §1, §2

GSK3B = GSK3B (Homo sapiens, UniProt P49841); experiment: Kinase selectivity, % remaining activity; format: biochemical; conditions: 10 μM compound, 10 μM ATP, duplicate
Method: as §1, §2

LCK = LCK (Homo sapiens, UniProt P06239); experiment: Kinase selectivity, % remaining activity; format: biochemical; conditions: 10 μM compound, 10 μM ATP, duplicate
Method: as §1, §2

MSK1/RPS6KA5 = MSK1/RPS6KA5 (Homo sapiens, UniProt O75582); experiment: Kinase selectivity, % remaining activity; format: biochemical; conditions: 10 μM compound, 10 μM ATP, duplicate
Method: as §1, §2

PIM3 = PIM3 (Homo sapiens, UniProt Q86V86); experiment: Kinase selectivity, % remaining activity; format: biochemical; conditions: 10 μM compound, 10 μM ATP, duplicate
Method: as §1, §2

RIPK2 = RIPK2 (Homo sapiens, UniProt O43353); experiment: Kinase selectivity, % remaining activity; format: biochemical; conditions: 10 μM compound, 10 μM ATP, duplicate
Method: as §1, §2

ROCK1 = ROCK1 (Homo sapiens, UniProt Q13464); experiment: Kinase selectivity, % remaining activity; format: biochemical; conditions: 10 μM compound, 10 μM ATP, duplicate
Method: as §1, §2

TNIK = TNIK (Homo sapiens, UniProt Q9UKE5); experiment: Kinase selectivity, % remaining activity; format: biochemical; conditions: 10 μM compound, 10 μM ATP, duplicate
Method: as §1, §2

YES/YES1 = YES/YES1 (Homo sapiens, UniProt P07947); experiment: Kinase selectivity, % remaining activity; format: biochemical; conditions: 10 μM compound, 10 μM ATP, duplicate
Method: as §1, §2

c-Src = c-Src (Homo sapiens, UniProt P12931); experiment: Kinase selectivity, % remaining activity; format: biochemical; conditions: 10 μM compound, 10 μM ATP, duplicate
Method: as §1, §2

[2] = read-out: % of remaining activity (relative to DMSO)

LCK, sequence (P06239 whole entry): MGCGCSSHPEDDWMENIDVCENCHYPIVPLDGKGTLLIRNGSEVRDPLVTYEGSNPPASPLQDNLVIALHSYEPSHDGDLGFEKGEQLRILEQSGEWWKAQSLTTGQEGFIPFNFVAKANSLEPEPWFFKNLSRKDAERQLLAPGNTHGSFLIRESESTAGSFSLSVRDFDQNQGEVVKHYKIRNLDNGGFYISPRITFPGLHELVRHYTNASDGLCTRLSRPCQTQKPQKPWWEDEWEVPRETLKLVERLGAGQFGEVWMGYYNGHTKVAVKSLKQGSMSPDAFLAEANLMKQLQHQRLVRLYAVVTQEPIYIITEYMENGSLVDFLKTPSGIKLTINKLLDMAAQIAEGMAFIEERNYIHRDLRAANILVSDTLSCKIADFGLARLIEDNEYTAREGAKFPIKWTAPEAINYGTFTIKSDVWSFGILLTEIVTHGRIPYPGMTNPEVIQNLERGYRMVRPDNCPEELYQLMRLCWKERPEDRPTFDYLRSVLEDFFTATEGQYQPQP
CK1g2, sequence (P78368 whole entry, species assumed): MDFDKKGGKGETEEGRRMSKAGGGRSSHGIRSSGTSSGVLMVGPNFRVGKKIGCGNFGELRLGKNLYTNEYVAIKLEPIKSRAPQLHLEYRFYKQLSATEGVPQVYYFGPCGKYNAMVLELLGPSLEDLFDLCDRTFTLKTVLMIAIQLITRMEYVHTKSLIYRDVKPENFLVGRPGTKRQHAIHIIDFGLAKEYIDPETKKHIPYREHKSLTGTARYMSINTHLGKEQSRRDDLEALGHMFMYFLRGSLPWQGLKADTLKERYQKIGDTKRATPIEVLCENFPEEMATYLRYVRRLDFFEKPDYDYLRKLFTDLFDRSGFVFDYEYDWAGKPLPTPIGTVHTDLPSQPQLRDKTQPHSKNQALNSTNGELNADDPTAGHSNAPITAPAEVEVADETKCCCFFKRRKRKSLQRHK
MSK1/RPS6KA5, sequence (O75582 whole entry): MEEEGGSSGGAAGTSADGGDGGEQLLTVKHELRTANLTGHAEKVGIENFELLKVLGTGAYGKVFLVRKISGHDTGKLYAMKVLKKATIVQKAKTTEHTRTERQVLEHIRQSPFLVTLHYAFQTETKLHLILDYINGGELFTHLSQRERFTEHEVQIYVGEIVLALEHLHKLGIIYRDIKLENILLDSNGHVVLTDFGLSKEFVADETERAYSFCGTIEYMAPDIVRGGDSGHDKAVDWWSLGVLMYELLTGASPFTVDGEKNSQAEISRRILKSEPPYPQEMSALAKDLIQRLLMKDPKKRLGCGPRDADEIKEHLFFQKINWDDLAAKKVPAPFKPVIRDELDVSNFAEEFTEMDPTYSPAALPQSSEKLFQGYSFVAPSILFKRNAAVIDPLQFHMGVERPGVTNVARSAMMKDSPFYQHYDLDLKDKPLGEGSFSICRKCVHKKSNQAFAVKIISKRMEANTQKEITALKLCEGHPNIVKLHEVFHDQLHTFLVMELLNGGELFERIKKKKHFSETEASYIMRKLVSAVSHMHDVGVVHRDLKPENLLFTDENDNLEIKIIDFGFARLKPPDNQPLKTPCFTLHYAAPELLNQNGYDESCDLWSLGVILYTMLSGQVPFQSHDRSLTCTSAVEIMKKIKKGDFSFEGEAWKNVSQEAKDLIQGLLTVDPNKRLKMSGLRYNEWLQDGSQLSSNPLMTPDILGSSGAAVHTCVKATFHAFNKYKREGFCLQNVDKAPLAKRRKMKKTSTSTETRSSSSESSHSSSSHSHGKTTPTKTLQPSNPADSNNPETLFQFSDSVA
CK1e, sequence (P49674 whole entry): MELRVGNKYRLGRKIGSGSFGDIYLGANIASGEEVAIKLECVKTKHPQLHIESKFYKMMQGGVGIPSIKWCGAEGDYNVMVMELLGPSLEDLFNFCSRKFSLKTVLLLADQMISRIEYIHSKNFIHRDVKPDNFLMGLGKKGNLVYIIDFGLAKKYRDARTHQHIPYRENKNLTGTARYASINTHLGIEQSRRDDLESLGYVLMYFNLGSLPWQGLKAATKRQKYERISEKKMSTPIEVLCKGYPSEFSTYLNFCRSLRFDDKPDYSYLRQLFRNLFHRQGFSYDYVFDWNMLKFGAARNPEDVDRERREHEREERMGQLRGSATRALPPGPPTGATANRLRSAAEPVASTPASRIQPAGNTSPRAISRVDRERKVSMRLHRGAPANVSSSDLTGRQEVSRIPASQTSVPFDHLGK
YES/YES1, sequence (P07947 whole entry): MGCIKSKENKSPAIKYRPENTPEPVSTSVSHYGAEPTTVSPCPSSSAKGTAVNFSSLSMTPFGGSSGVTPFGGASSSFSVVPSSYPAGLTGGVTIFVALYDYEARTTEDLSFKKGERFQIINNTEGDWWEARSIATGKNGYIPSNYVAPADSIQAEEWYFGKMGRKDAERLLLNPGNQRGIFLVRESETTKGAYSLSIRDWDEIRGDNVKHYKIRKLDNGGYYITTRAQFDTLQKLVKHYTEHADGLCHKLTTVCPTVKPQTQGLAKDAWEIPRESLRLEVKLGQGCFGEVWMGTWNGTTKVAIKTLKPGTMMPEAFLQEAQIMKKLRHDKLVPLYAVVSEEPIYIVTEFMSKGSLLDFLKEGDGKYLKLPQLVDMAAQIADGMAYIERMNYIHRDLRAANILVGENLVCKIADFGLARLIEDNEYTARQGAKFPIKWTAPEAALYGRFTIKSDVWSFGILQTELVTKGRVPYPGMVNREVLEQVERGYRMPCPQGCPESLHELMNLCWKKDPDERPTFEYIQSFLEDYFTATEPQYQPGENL
EPHA2, sequence (P29317 24-976): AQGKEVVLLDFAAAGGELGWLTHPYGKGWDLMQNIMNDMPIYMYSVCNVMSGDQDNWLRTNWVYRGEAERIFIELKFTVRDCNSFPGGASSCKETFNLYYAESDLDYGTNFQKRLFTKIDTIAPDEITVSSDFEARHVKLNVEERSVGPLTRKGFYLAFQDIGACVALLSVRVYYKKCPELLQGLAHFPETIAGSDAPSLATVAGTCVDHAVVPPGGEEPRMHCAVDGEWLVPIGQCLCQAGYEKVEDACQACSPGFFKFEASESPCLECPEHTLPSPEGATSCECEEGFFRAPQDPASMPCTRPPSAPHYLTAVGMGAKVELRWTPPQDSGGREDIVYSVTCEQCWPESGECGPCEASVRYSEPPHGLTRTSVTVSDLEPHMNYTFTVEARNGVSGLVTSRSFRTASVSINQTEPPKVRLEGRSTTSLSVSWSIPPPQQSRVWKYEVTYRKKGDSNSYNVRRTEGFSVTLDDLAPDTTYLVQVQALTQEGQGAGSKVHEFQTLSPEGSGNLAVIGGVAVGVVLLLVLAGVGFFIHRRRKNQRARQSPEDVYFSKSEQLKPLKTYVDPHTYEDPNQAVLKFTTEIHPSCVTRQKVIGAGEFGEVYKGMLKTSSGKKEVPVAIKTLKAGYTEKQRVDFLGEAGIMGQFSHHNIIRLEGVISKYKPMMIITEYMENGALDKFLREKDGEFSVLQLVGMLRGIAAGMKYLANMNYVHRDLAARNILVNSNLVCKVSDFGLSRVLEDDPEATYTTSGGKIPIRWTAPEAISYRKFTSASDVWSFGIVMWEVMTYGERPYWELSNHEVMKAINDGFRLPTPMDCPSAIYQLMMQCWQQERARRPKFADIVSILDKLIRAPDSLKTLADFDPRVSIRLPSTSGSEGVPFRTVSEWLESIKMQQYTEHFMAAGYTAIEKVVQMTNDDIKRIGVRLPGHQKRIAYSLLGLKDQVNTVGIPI
RIPK2, sequence (O43353 whole entry): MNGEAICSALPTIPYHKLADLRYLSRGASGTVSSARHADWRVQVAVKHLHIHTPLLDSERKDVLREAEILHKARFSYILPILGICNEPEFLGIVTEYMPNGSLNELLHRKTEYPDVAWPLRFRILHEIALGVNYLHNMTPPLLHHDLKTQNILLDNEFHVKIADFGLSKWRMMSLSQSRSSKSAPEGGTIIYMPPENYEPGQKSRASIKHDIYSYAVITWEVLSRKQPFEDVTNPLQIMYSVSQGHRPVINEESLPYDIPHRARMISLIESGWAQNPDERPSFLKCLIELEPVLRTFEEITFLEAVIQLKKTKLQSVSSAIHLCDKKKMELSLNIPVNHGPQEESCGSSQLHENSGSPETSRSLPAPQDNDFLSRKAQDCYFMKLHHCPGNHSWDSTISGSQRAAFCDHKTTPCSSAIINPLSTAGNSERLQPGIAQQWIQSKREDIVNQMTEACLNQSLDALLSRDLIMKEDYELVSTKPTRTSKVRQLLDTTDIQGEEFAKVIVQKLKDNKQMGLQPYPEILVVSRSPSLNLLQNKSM
CK1g1, sequence (Q9HCP0 whole entry): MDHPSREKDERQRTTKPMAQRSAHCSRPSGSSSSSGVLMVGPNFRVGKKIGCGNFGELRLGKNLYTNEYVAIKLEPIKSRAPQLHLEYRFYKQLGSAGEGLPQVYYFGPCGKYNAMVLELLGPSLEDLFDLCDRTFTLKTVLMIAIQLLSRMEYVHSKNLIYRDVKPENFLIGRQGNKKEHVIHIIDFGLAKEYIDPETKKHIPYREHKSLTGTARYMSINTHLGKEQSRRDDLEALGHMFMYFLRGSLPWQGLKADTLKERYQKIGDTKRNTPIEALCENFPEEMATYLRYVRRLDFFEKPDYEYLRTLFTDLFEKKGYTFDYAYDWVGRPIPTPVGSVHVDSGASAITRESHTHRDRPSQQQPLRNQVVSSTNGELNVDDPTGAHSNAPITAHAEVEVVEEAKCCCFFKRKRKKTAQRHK

CNc1c(C(N)=O)c2ccccn2c1C(=O)c1ccc(F)cc1 [Compound A, 2-methyl-amino-3-[(4-fluorophenyl)carbonyl]indolizine-1-carboxamide]
Escape latency (time to reach the target), Mean ± SEM, Day 1 ([1]; Day 1): 58.1 ± 1.44 s
Path length to reach the target, Mean ± SEM, Day 1 ([1]; Day 1): 9.20 ± 0.46 meter
Escape latency (time to reach the target), Mean ± SEM, Day 2 ([1]; Day 2): 53.7 ± 2.41 s
Path length to reach the target, Mean ± SEM, Day 2 ([1]; Day 2): 8.60 ± 0.52 meter
Escape latency (time to reach the target), Mean ± SEM, Day 3 ([1]; Day 3): 49.4 ± 3.23 s
Path length to reach the target, Mean ± SEM, Day 3 ([1]; Day 3): 7.05 ± 0.62 meter
Escape latency (time to reach the target), Mean ± SEM, Day 4 ([1]; Day 4): 45.4 ± 3.22 s
Path length to reach the target, Mean ± SEM, Day 4 ([1]; Day 4): 6.94 ± 0.62 meter
% of remaining activity (relative to DMSO) (ABL2/ARG; listed as Cmp A): 70.98%
remaining activity at 10 µM (ABL2/ARG; [2]): 71.3%
% of remaining activity (relative to DMSO) (ALK5/TGFBR1; listed as Cmp A): 109.38%
remaining activity at 10 µM (ALK5/TGFBR1; [2]): 110%
% of remaining activity (relative to DMSO) (CK1e; listed as Cmp A): 3.67%
remaining activity at 10 µM (CK1e; [2]): 2.81%
% of remaining activity (relative to DMSO) (CK1g1; listed as Cmp A): 119.87%
remaining activity at 10 µM (CK1g1; [2]): 107%
% of remaining activity (relative to DMSO) (CK1g2; listed as Cmp A): 99.83%
remaining activity at 10 µM (CK1g2; [2]): 95.5%
% of remaining activity (relative to DMSO) (CLK2; listed as Cmp A): 105.40%
remaining activity at 10 µM (CLK2; [2]): 100%
% of remaining activity (relative to DMSO) (DAPK1; listed as Cmp A): 124.50%
remaining activity at 10 µM (DAPK1; [2]): 134%
% of remaining activity (relative to DMSO) (EGFR; listed as Cmp A): 52.51%
remaining activity at 10 µM (EGFR; [2]): 55.8%
% of remaining activity (relative to DMSO) (EPHA2; listed as Cmp A): 55.67%
remaining activity at 10 µM (EPHA2; [2]): 59%
% of remaining activity (relative to DMSO) (FGFR1; listed as Cmp A): 95.15%
remaining activity at 10 µM (FGFR1; [2]): 95.7%
% of remaining activity (relative to DMSO) (GSK3B; listed as Cmp A): 122.02%
remaining activity at 10 µM (GSK3B; [2]): 124%
% of remaining activity (relative to DMSO) (LCK; listed as Cmp A): 39.87%
remaining activity at 10 µM (LCK; [2]): 39.4%
% of remaining activity (relative to DMSO) (MSK1/RPS6KA5; listed as Cmp A): 111.83%
remaining activity at 10 µM (MSK1/RPS6KA5; [2]): 117%
% of remaining activity (relative to DMSO) (PIM3; listed as Cmp A): 119.96%
remaining activity at 10 µM (PIM3; [2]): 125%
% of remaining activity (relative to DMSO) (RIPK2; listed as Cmp A): 91.39%
remaining activity at 10 µM (RIPK2; [2]): 93.5%
% of remaining activity (relative to DMSO) (ROCK1; listed as Cmp A): 96.14%
remaining activity at 10 µM (ROCK1; [2]): 95.5%
% of remaining activity (relative to DMSO) (TNIK; listed as Cmp A): 94.12%
remaining activity at 10 µM (TNIK; [2]): 94.4%
% of remaining activity (relative to DMSO) (YES/YES1; listed as Cmp A): 60.09%
remaining activity at 10 µM (YES/YES1; [2]): 58.4%
% of remaining activity (relative to DMSO) (c-Src; listed as Cmp A): 60.86%
remaining activity at 10 µM (c-Src; [2]): 61%
